According to patent publication US20040010021A1, “Pharmaceutical compositions for the treatment of depression or symptoms suggesting depression” (priority 2000, published 2004):
Entries after “also recorded” stand apart in the source; their conditions may differ.

Legend:
patients [1] = conditions: cited from earlier work; for depression as adverse effect (literature): literature and Physicians' Desk Reference
patients [2] = conditions: 4-week clinical study
Excerpt: This is followed by a four-week (week 0-4) H2-blocker therapy performed on the basis of the former randomization applying either Quamatel®- or Zantac®—therapy. During randomization they have also taken the female-male ratio into consideration.
(§1) The describing statistics (median, quartiles, average, dispersion, case-number, minimum and maximum values) were given for all numerical data variables (age, body weight, height, overall scores for HAMD and MADRS, as well as HAMA). […] The global parameters (the patient's opinion of the changes in the mood and the general condition, the physician's opinion of the general condition of the patient, and the psychiatrist's opinion of the changes in depression and anxiety) were assessed by applying the median-test (SAS NPAR1 WAY method).

patients [3] = experiment: Hamilton 24 (HAMD) depression scale, multicenter randomized controlled clinical study; type: in vivo, human; conditions: conclusion from the 4-week clinical study, vs ranitidine-group and baseline
Excerpt: The number of cases investigated was 119, which assured that the obtained data reach the level of statistical significance. […] During the statistical evaluation a probability level of p≦0.05 was regarded as significant.
Multicenter, randomized, controlled study; the study can be regarded blind with respect to the psychiatrist's assessment of the results.
4-week treatment period with the administration of the test—or reference medication.
On the occasion of the 1st visit (week-1-0) the recording of the medical history, physical examination, endoscopy (optional), the signing of the consent form, then the assessment of the extent of anxiety during the psychiatric examination, by using the Hamilton 24 (HAMD) and the MADRS (Montgomery Asberg) depression scales as well as the Hamilton Anxiety Rating Scale (HAMA). […]
as §1

| Compound | depression as adverse effect (literature) (patients [1]) | efficacy in schizophrenia (literature case studies) (patients [1]; case studies) | gastrointestinal efficacy compared with ranitidine (patients [2]) | antidepressant / depression-reducing effect, conclusion of the study (patients [3]) |
| --- | --- | --- | --- | --- |
| CN/C(=N/CCSCc1nc[nH]c1C)NC#N [cimetidine] | marked depressant effect |  |  |  |
| NC(N)=Nc1nc(CSCCC(N)=NS(N)(=O)=O)cs1 [famotidine] | depression as one of the adverse reactions | effective in the management of schizophrenia | practically displaying the same gastrointestinal efficacy | specific depression-reducing effect; also recorded: significantly detectable antidepressant effect |
| CNC(=C[N+](=O)[O-])NCCSCc1ccc(CN(C)C)o1 [ranitidine] | development of depression could be unquestionably associated with ranitidine-therapy |  |  |  |
